# Data reported in PubChem BioAssay (NCI).
#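 Assay format: 96-well plates, 48-hour exposure. TGI: concentration producing complete growth inhibition.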 Where a SMILES comes first, the peptide text is derived from it. The star is where a group is joined. Cbz = O=C(OCc1ccccc1)*; Boc = CC(C)(C)OC(=O)*; OSu = O=C1CCC(=O)N1O*; Bn = c1ccc(C*)cc1
# Columns and labels:
# Experiment in all cases: NCI tumour cell line growth inhibition, 48 h
# [1] = system: NCI-H226 lung
# [2] = system: K-562 leukemia
# [3] = system: KM12 colon
# [4] = system: PC-3 prostate
# [5] = system: SK-OV-3 ovarian
# [6] = system: NCI-H460 lung
# [7] = system: SF-295 CNS
# [8] = system: M14 melanoma
# [9] = system: U251 CNS
# [10] = system: HL-60(TB) leukemia
# [11] = system: MOLT-4 leukemia
# [12] = system: CAKI-1 renal
# [13] = system: HOP-62 NSCLC
# [14] = system: HS 578T breast
SMILES,TGI [1] [µM],TGI [2] [µM],TGI [3] [µM],TGI [4] [µM],TGI [5] [µM],TGI [6] [µM],TGI [7] [µM],TGI [8] [µM],TGI [9] [µM],TGI [10] [µM],TGI [11] [µM],TGI [12] [µM],TGI [13] [µM],TGI [14] [µM]
COc1cc2cccc(N)c2cc1OC,> 100,> 100,> 100,> 100,> 100,> 100,> 100,> 100,> 100,> 100,> 100,> 100,> 100,> 100
CCCCC(Sc1cc(Cl)c(C)cc1S(=O)(=O)Nc1n[nH]c(N)n1)C(=O)OC (stereo not given),> 10,> 10,> 10,> 10,> 10,> 10,> 10,> 10,> 10,> 10,> 10,> 10,> 10,> 10
O=C(Nc1ccccc1)N(C1=NCC(CI)S1)c1ccc(F)cc1F (stereo not given),> 100,> 100,> 100,> 100,> 100,–,> 100,> 100,> 100,48,57,66.9,> 100,> 100
CO/N=C(\C(=O)N(C)n1cnnc1)c1csc(NC(c2ccccc2)(c2ccccc2)c2ccccc2)n1,> 10,> 10,> 10,> 10,> 10,> 10,> 10,> 10,> 10,> 10,> 10,> 10,> 10,> 10
CCOC(=O)C(C)NC(=O)C(C)NC(=O)C(C)NC(=O)C(C)NC(=O)C(C)NC(=O)OCc1ccccc1 (stereo not given),> 100,> 100,> 100,> 100,> 100,> 100,> 100,> 100,> 100,> 100,> 100,> 100,> 100,> 100
CC(C)(C)OC(=O)NC(Cc1ccc(OCc2ccccc2)cc1)C(=O)NC(CCCCNC(=O)OCc1ccccc1)C(=O)ON1C(=O)CCC1=O (stereo not given) (Boc-Tyr(Bn)-Lys(Cbz)-OSu; configuration not given here),99.6,73.6,65.5,57.7,–,50.8,–,46.2,32.2,49.3,48.2,–,42.8,67.1
COc1cc(S(=O)(=O)Nc2ccc(-c3csc(N)n3)cc2)ccc1Cl,77.5,44.3,–,29.7,–,–,–,35,–,43.6,31.7,45,–,> 100
CCCCCCCCCCCCCCCCOCC(Cl)COP(=O)(O)OP(=O)(O)OCC1OC(n2cc(C)c(=O)[nH]c2=O)CC1O (stereo not given),80.5,> 100,> 100,62.9,> 100,> 100,> 100,> 100,> 100,> 100,> 100,> 100,> 100,86.4
c1ccc([P+](Cc2ccccc2C[P+](c2ccccc2)(c2ccccc2)c2ccccc2)(c2ccccc2)c2ccccc2)cc1,> 100,> 100,> 100,> 100,> 100,> 100,> 100,> 100,> 100,> 100,–,> 100,> 100,> 100
